Experimental data as given in patent US11661431B2, “Thienopyrrole compounds” (Gilead Sciences, Inc., priority 2021, dated 2023).
Values after ≈ are worked out from the molar mass of the structure shown. Like-named read-outs stand apart in the source and are kept apart here.

Legend:
TLR7 = TLR7 (Homo sapiens (Human), UniProt Q9NYK1); test: TLR7 human peripheral blood mononuclear cell (PBMC) cell-based assay (GS-986 as agonist; IL-6 and IFNα readout); details: human PBMCs, TLR7 agonist GS-986 at 400 nM, 6 hours, antagonist potency; read-out: TLR-7 EC50
Method in brief: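 Human PBMCs (100,000 cells/well) preincubated 1 h at 37 °C with antagonist in 10-point dose response, then stimulated with TLR7 agonist for a further 6 h at 37 °C, 5% CO2. Supernatant IL-6 and IFNα measured by electrochemiluminescence immunoassay.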

TLR8 = TLR8 (Homo sapiens (Human), UniProt Q9NR97); test: TLR8 human peripheral blood mononuclear cell (PBMC) cell-based assay (Compound A as agonist; TNFα and IL12p40 readout); details: human PBMCs, TLR8 agonist Compound A at 800 nM, 6 hours, antagonist potency; read-out: TLR-8 EC50
[1] = target: MATE2-K (multidrug and toxin extrusion protein 2) (Homo sapiens (Human), UniProt Q86VL8); test: MATE2-K IC50 assay (14C-metformin uptake in transfected MDCK-II cells); format: in vitro ADME
Method: MATE2-K (multidrug and toxin extrusion protein 2) is expressed in the apical membrane in the kidney and mediates the elimination of compounds to urine. MDCK-II cells were maintained in DMEM with low glucose and 10% FBS. Cells passages up to 40 were seeded at 60K±10K cells/well on 96-well, transwell membrane plates approximately 24 hours before transfection. Transport assays were carried out approximately 48 hours after transfection. […]. The assay plate was then placed in a 37° C. incubator with orbital shaking at approximately 60 RPM for the pre-incubation time of 15 minutes. […]. The assay plate was incubated at 37° C. with orbital shaking at approximately 60 RPM for the incubation time of 5 minutes. At end of the 5-minute incubation, 15 μL of dosing solution was removed from each well containing the compound being tested and measured using LC/MS/MS for dose recovery assessment. The assay wells were then washed four times with ice cold PBS. 60 μL cell extraction solution was added to each well and the plate was incubated at 37° C. with orbital shaking at approximately 60 RPM for the 15 minutes. After this incubation, 30 μL was removed from each well, added to 200 μL scintillation fluid, and counted on a 1450 Microbeta (Perkin-Elmer) to measure the probe substrate uptake. Inhibition potential of the compound being tested was calculated by dividing the transporter-mediated uptake rate in presence of the compound being tested or the reference inhibitor by the transporter-mediated uptake rate in presence of vehicle control and fitted to a sigmoidal function to determine the IC50 values.

[2] = Kinetic solubility at pH 7.4; details: 1×PBS buffer (pH 7.4), 22.8 °C, pH 7.4, aqueous buffer, kinetic from dmso stock
Method: Kinetic Solubility at pH 7.4
(§1) The final DMSO Concentration was 1.0% and maximum theoretical compound concentration is 100 μM. The filter plate was sealed. […] The collection plate was sealed for analysis.
(§2) Filtrates were injected into the nitrogen detector for quantification on Analiza's Automated Discovery Workstation. The results are reported in μg/ml.
(§3) The filtrates were quantified with respect to this calibration curve. The calculated solubility values were corrected for background nitrogen present in the DMSO, and the media used to prepare the samples.
(§4) The 1×PBS buffer (pH 7.4) was prepared by adding 50 mL of phosphate buffered saline solution 10×, PBS (Fisher Bioreagent part number BP399-500) to approximately 450 mL HPLC grade H2O. The volume of the solution was then adjusted to 500 mL for a total dilution factor of 1:10 and a final PBS concentration of 1×. The pH of the final solution was measured and found to be 7.4.
(§5) Each compound tested was analyzed as a trifluoroacetate salt.

[3] = test system: cryopreserved hepatocytes; test: Human hepatic stability in cryopreserved hepatocytes; details: 1×10^6 cells/mL, aliquots at 0, 1, 3 and 6 hours, LC-MS/MS
Method: (§6) Each tested compound was incubated in suspensions of cryopreserved hepatocytes at a final concentration of 1 μM. Vials containing cryopreserved hepatocytes were removed from liquid nitrogen and immediately immersed in a 37° C. water bath. The vials were swirled gently until the contents had thawed. They were then immediately emptied into 48 mL of pre-warmed HT medium in a 50 mL conical tube. Cells remaining in the vial were resuspended with 1.0 mL of pre-warmed HT medium and added to the conical tube. The tube was capped and then gently inverted several times to re-suspend the hepatocytes. The cell suspension was centrifuged at 500×g for 10 minutes at room temperature and the supernatant discarded. The cell pellet was loosened by gently swirling the centrifuge tube. Non-supplemented KHB medium was added to obtain the appropriate target cell density.
(§7) For incubations, aliquots of hepatocyte suspension (250 mL at a concentration of 2×10^6 cells/mL) were added to 250 mL of 2 mM of each tested compound in KHB, in duplicate wells in a 24-well plate. Final concentration in the incubations were 1×10^6 cells/mL and 1 mM of each tested compound. […] A cell-free control was also tested in parallel with the incubations. The incubations were carried out with gentle shaking in a 37° C. incubator under a humid atmosphere of 95% air/5% CO2 (v/v). Aliquots (100 mL) were removed after 0, 1, 3, and 6 hours and added to 200 mL IS/Q. The samples were then placed on a shaker for 10 min followed by centrifugation at 3000×g for 20 min. The supernatant was transferred to a new plate and diluted with 100 μL of water to reduce the organic solvent content and then placed on a shaker for 10 mins. Samples were injected and analyzed using LC-MS/MS.

[4] = test system: cryopreserved hepatocytes; details: human, 1 μM
Method: as §6, §7

physchem = details: 22.8 °C, pH 7.4, aqueous buffer, kinetic from dmso stock
Method: Kinetic Solubility at pH 7.4
as §1, §2, §3, §4, §5

TLR8, sequence (Q9NR97 27-1041): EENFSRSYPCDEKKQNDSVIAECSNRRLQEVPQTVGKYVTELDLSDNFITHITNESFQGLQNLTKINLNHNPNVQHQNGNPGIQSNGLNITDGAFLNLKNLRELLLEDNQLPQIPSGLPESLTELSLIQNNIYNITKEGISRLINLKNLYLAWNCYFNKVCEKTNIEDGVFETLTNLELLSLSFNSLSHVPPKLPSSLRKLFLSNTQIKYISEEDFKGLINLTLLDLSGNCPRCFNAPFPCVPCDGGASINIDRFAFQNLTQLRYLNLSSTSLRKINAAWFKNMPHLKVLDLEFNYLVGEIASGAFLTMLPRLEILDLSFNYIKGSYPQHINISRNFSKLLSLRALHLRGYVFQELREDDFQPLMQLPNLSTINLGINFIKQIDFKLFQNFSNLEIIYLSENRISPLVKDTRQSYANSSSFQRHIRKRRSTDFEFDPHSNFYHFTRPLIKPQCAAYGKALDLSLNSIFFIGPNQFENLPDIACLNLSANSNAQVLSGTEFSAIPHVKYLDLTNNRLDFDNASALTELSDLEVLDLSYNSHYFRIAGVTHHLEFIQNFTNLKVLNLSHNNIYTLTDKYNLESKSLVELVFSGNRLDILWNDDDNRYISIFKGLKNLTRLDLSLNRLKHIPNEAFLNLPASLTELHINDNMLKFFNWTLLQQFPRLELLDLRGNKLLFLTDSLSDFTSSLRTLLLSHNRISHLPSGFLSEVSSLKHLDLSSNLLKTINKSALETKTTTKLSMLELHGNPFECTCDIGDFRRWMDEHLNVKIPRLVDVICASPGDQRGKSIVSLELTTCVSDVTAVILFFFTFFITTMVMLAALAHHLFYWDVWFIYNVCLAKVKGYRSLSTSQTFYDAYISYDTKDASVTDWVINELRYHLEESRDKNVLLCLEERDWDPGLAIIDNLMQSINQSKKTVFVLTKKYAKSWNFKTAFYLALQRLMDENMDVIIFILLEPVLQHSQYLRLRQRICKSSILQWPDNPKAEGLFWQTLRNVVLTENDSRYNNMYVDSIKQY
TLR7, sequence (Q9NYK1 27-1049): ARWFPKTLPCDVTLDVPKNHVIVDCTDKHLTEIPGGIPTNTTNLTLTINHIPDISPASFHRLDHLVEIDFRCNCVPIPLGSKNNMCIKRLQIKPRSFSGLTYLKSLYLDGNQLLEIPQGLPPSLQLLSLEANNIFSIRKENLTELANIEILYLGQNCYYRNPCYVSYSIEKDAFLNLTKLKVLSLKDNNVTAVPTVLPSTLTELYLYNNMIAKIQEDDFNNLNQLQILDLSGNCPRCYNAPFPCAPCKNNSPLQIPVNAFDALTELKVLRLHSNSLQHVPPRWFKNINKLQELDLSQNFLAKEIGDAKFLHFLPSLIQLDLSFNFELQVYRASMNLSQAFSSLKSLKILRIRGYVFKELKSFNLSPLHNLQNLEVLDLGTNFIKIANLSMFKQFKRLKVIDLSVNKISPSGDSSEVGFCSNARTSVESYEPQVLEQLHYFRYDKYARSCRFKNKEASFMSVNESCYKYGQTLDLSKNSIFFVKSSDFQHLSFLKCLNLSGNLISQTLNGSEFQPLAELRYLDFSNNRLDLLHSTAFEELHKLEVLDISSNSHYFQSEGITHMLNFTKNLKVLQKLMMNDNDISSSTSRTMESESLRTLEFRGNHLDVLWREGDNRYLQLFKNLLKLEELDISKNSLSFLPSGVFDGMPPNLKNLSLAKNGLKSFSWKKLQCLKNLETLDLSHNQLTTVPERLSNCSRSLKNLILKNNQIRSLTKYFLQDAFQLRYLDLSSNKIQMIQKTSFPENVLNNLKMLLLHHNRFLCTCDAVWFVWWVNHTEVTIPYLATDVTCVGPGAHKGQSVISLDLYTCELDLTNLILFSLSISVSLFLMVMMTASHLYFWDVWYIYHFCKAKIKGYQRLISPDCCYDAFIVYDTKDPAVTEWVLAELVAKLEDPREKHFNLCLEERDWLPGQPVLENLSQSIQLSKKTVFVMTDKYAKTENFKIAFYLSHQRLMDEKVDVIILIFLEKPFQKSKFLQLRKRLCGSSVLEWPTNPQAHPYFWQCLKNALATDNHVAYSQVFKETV
MATE2-K (multidrug and toxin extrusion protein 2), sequence (Q86VL8 other isoform, or with tags, fused parts or gaps, species assumed): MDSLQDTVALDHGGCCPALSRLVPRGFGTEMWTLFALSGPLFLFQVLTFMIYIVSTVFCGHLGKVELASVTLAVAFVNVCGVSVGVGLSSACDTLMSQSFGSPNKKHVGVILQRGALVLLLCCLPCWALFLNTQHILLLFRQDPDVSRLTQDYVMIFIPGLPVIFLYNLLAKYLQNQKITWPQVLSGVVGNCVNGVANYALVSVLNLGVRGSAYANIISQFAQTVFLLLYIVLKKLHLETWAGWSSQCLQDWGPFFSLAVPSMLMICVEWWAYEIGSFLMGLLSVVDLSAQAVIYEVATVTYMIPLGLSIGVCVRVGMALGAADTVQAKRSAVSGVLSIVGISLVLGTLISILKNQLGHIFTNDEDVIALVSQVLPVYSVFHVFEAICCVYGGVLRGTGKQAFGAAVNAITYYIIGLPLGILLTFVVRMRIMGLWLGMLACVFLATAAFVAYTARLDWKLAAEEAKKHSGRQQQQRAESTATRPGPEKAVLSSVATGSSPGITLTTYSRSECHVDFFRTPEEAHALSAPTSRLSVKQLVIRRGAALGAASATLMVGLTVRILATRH

Row | SMILES | EC50 (TLR7) | EC50 (TLR8) | IC50 [1] | solubility kinetic at 24 h [2] | Predicted Clearance [3] | Predicted Clearance [4] | solubility kinetic at 24 h (physchem)
1 | Cc1c(-c2[nH]c3sc(C4CCN(CC(N)=O)CC4)c(C)c3c2C(C)C)cn2ncnc2c1C [Example 67] | 0.35 nM | 2.08 nM | 6200 nM | 16.8 µg/mL (≈ 36.2 µM) | 2.33 mL/min/kg | – | –
2 | Cc1c(-c2[nH]c3sc([C@@H]4C[C@@H]5C[C@H]4CN5CC(N)=O)c(C)c3c2C(C)C)cn2ncnc2c1C [Example 79, 2-((1S,4R,5R)-5-(5-(7,8-dimethyl-[1,2,4]triazolo[1,5-a]pyridin-6-yl)-4 isopropyl-3-methyl-6H-thieno[2,3-b]pyrrol-2-yl)-2-azabicyclo[2.2.1]heptan-2-yl)acetamide] | 0.12 nM | 0.23 nM | 8100 nM | 21.5 µg/mL (≈ 45.1 µM) | 4.33 mL/min/kg | – | –
3 | Cc1c(-c2[nH]c3sc([C@@H]4C[C@H]5CC[C@@H](C4)N5CC(N)=O)c(C)c3c2C(C)C)cn2ncnc2c1C [Example 91] | 0.09 nM | 5.41 nM | 7800 nM | – | – | 4 mL/min/kg | 2.2 µg/mL (≈ 4.48 µM)
4 | COc1cc(-c2[nH]c3cc(C4CCNCC4)sc3c2C(C)C)cn2ncnc12 [Example B-1, reference compound] | 0.3 nM | 2.55 nM | 1100 nM | 22 µg/mL (≈ 55.6 µM) | 4.33 mL/min/kg | – | –
